Data set [1] can be described thus: stability compared to carvedilol base. It counts as physicochemical. As to conditions: color of final product, phosphate sesquihydrate.
Data set [2] is described as follows: solubility compared to carvedilol base.
For data set [3] the following is noted: compared to the free base of carvedilol; disclosed in WO 2004/002419; cited from earlier work.

Like-named read-outs stand apart in the source and are kept apart here.

In the case of `COc1ccccc1OCCNCC(O)COc1cccc2[nH]c3ccccc3c12.O=P(O)(O)O` (stereo not drawn) [carvedilol dihydrogen phosphate sesquihydrate], the stability result in data set [1] was “More stable as compared to carvedilol base”. In data set [2], the solubility result was “Better solubility as compared to carvedilol base”. As to `COc1ccccc1OCCNCC(O)COc1cccc2[nH]c3ccccc3c12.O=P(O)(O)O` (stereo not drawn) [carvedilol dihydrogen phosphate, Carvedilol dihydrogen phosphate], the solubility result in data set [3] was “higher solubility when compared to the free base of carvedilol”.

Values taken from US8344159B2, “Carvedilol phosphate sesquihydrate” (priority 2006, dated 2013).
